Assay results published in US6291488A, “Preventing protozoal infections” (Glaxo Wellcome Inc., priority 1992, dated 2001).
Values joined by “and” are separate entries in the source; they are usually repeats but may differ in a detail not shown here. Equal entries are not always repeated.

Key:
[1] = system: P. falciparum W-2 (multi-drug resistant W-2 clone); assay: In vitro drug combination sensitivity (Desjardins hypoxanthine incorporation), W-2 clone; format: cell-based; settings: drug combined with compound of Example 1, positive = synergistic, negative = antagonism, 0 = additive
Procedure: (§1) Antimalarial activity in this system is assessed by inhibition of radiolabelled hypoxanthine incorporation into parasites by graded concentrations of drugs.
(§2) The drugs tested and their solvents are listed below:
(§3) In order to study drug combinations, drug solutions at starting concentrations were combined in various ratios and 1:5,1:2,2:1 and 5:1). […] Serial 1:3 dilutions of the drugs with media were made to fill the 96-well microtitre plate using a 12-channel pipetter. To evaluate drugs classified as dihydrofolic acid reductase (DHFR) inhibitors, modified culture medium was used which contained only physiologic concentrations of folic acid and PABA.
(§4) Individual IC50 s were calculated using the "MINSQ" program from Micromath Scientific Software. Each set of paired data was fitted to the hyperbolic tangent function used by Desjardins.
(§5) An isobologram was constructed by fitting the data to the equation:
(§6) Y1-[Xi /(Xi +e^I *(1-Xi))]
(§7) I=interaction parameter indicating degree of reversal
Positive values of I indicated a synergistic combination, negative values indicated antagonism and I=O indicated additive interaction. […]

[2] = system: P. falciparum D-6 (drug-sensitive but melfloquine resistant D-6 clone); assay: In vitro drug combination sensitivity (Desjardins hypoxanthine incorporation), D-6 clone; format: cell-based; settings: drug combined with compound of Example 1, positive = synergistic, negative = antagonism, 0 = additive
Procedure: as §1, §2, §3, §4, §5, §6, §7
(§8) Positive values of I indicated a synergistic combination, negative values indicated antagonism and I=O indicated additive interaction.
(§9) The optimum ratio of the combination with proguanil was estimated for each of the three strains of malaria parasite by determining the ratio of the IC50 of proguanil to the IC50 of the compound of Formula (II).

[3] = system: T. gondii C56 strain; assay: Anti-Toxoplasma activity in vivo, mouse model of T. gondii; parameters: species or system T. gondii; CBA/CA mice; settings: oral gavage; for Mean Time to Death: 10 days
Text: Comparison of anti-Toxoplasma activities in vivo of compound of Example 1, proguanil and combinations thereof
Activities of the compounds and combinations were examined in a mouse model of T. gondii, using the increase in time to death and percent survival of the mice as measures of drug activity.
Groups of 10, 20 gm CBA/CA mice were infected orally by gavage with 6 cysts of the C56 strain of T. gondii and drug treatment was started 3 days later and continued for 10 day. All drugs were administered orally by gavage. The following groups were examined:
All animals were examined twice daily for 30 days and all deaths recorded.

[4] = system: Pneumocystis; assay: Anti-Pneumocystis activity in vivo, scid mouse model of Pneumocystis pneumonia; parameters: species or system P. carinii; scid mice; key to Mean Score ±SE: score 0 = no infection, +4 = very heavy infection; settings: for number of mice with SCORE 0: 0 = no infection; for % of Control: mean score
Procedure: Comparison of anti-Pneumocystis activities in vivo of compound of Example 1 proguanil and combinations thereof
Activities of the compounds and combinations were examined in a scid mouse model of Pneumocystis pneumonia.
The level of infection of mice in each group was measured using standard lung impression smears and immunofluorescence tests. A score was assigned to each mouse where 0=no infection and +4=very heavy infection.

[5] = system: P. falciparum C2B (isolate resistant to the compound of example 1); format: cell-based; settings: drug combined with compound of Example 1, positive = synergistic, negative = antagonism, 0 = additive
Procedure: as §1, §2, §3, §4, §5, §6, §7, §8, §9

[6] = 25 mg/kg p.o. daily, +4 = very heavy infection

SMILES: Oc1ncnc2[nH]ncc12 [Allopurinol]
- I (interaction parameter) [1]: 1.14
- I (interaction parameter) [2]: 0.43

SMILES: C[C@H]1[C@H](OC(=O)CCC(=O)O)O[C@@H]2O[C@@]3(C)CC[C@H]4[C@H](C)CC[C@@H]1[C@@]24OO3 [Artesunic acid]
- I (interaction parameter) [2]: -0.18

SMILES: O=C1C(O)=C([C@H]2CC[C@H](c3ccc(Cl)cc3)CC2)C(=O)c2ccccc21 [Atovaquone, 2-[4-(4-chlorophenyl)cyclohexyl]-3-hydroxy-1,4-naphthoquinone]
- percent survival ([3]; 10 mg/kg): 10%
- Mean Time to Death ([3]; 10 mg/kg): 20.1 days
- percent survival ([3]; 25 mg/kg): 10%
- Mean Time to Death ([3]; 25 mg/kg): 24.1 days
- Mean Score ±SE ([4]; 25 mg/kg p.o. daily): 3.10 ± 0.17
- No. Infected/No. Examined ([4]; 25 mg/kg p.o. daily): 10/10
- number of mice with SCORE +1 ([4]; 25 mg/kg p.o. daily): 0
- number of mice with SCORE +3 ([4]; 25 mg/kg p.o. daily): 1
- number of mice with SCORE +4 ([4]; 25 mg/kg p.o. daily): 7
- number of mice with SCORE 0 ([4]; 25 mg/kg p.o. daily): 0
- number of mice with SCORE +4 [4, 6]: 2
- Mean Score ±SE ([4]; 50 mg/kg p.o. daily): 2.50 ± 0.16
- No. Infected/No. Examined ([4]; 50 mg/kg p.o. daily): 10/10
- number of mice with SCORE +1 ([4]; 50 mg/kg p.o. daily): 0
- number of mice with SCORE +3 ([4]; 50 mg/kg p.o. daily): 5
- number of mice with SCORE +4 ([4]; 50 mg/kg p.o. daily): 5
- number of mice with SCORE 0 ([4]; 50 mg/kg p.o. daily): 0
- number of mice with SCORE +4 ([4]; 50 mg/kg p.o. daily, +4 = very heavy infection): 0
- infection score (in words) ([4]; dosed alone): reductions in the infection score
- % of Control ([4]; 25 mg/kg p.o. daily): 84%
- % of Control ([4]; 50 mg/kg p.o. daily): 68%

SMILES: CCN(CC)CCCC(C)Nc1ccnc2cc(Cl)ccc12 (centres unmarked) [Chloroquine]
- I (interaction parameter) [1]: -1.84
- I (interaction parameter) [2]: -1.40

SMILES: Cc1nc(C)c(Cl)c(O)c1Cl [Clopidol]
- I (interaction parameter) [2]: 0.73

SMILES: CC1(C)N=C(N)N=C(N)N1c1ccc(Cl)cc1 [Cycloguanil]
- I (interaction parameter) [1]: 2.21
- I (interaction parameter) [2]: 1.66

SMILES: Nc1ccc(S(=O)(=O)c2ccc(N)cc2)cc1 [Dapsone]
- I (interaction parameter) [1]: -0.39

SMILES: OC(c1cc(C(F)(F)F)nc2c(C(F)(F)F)cccc12)C1CCCCN1 (centres unmarked) [Mefloquine]
- I (interaction parameter) [1]: -1.19

SMILES: CCn1cc(C(=O)O)c(=O)c2cc(F)c(N3CCNCC3)cc21 [Norfloxacin]
- I (interaction parameter) [1]: 1.02

SMILES: CC(C)NC(=N)NC(=N)NOCCCOc1cc(Cl)c(Cl)cc1Cl [PS-15]
- I (interaction parameter) [2]: -0.74

SMILES: COc1cc(NC(C)CCCN)c2ncccc2c1 (centres unmarked) [Primaquine]
- I (interaction parameter) [1]: -0.79

SMILES: [H]/N=C(\N/C(=N/[H])Nc1ccc(Cl)cc1)NC(C)C [Proguanil]
- I (interaction parameter) [5]: 2.56
- survivors ([3]; 25 mg/kg): no survivors
- toxicity to mice ([3]; 25 mg/kg): exhibits signs of toxicity
- Mean Time to Death ([3]; 25 mg/kg): 9.0 days and 9 days
- I (interaction parameter) [2]: 2.56
- Mean Score ±SE ([4]; 25 mg/kg p.o. daily): 3.80 ± 0.13
- No. Infected/No. Examined ([4]; 25 mg/kg p.o. daily): 10/10
- number of mice with SCORE +1 ([4]; 25 mg/kg p.o. daily): 0
- number of mice with SCORE +3 ([4]; 25 mg/kg p.o. daily): 0
- number of mice with SCORE +4 ([4]; 25 mg/kg p.o. daily): 2
- number of mice with SCORE 0 ([4]; 25 mg/kg p.o. daily): 0
- number of mice with SCORE +4 [4, 6]: 8
- prophylaxis of PCP in the scid mouse ([4]; alone at 25 mg/kg/day): ineffective
- % of Control ([4]; 25 mg/kg p.o. daily): 85%

SMILES: CCc1nc(N)nc(N)c1-c1ccc(Cl)cc1 [Pyrimethamine]
- I (interaction parameter) [5]: -0.48
- I (interaction parameter) [1]: 0.36

SMILES: Cc1cc(NS(=O)(=O)c2ccc(N)cc2)no1 [Sulfamethoxazole]
- I (interaction parameter) [1]: 2.75

SMILES: CN(C)C1C(=O)C(C(N)=O)=C(O)C2(O)C(=O)C3=C(O)c4c(O)cccc4C(C)(O)C3CC12 (centres unmarked) [Tetracycline]
- I (interaction parameter) [1]: 1.27
- I (interaction parameter) [2]: 1.11

SMILES: COc1cc(Cc2cnc(N)nc2N)cc(OC)c1OC [Trimethoprim]
- I (interaction parameter) [5]: 0.58
- I (interaction parameter) [1]: 1.27

SMILES: CC1(C)N=C(N)N=C(N)N1OCCCOc1cc(Cl)c(Cl)cc1Cl [WR99210]
- I (interaction parameter) [1]: 0.02
